Laboratory results reported in US12233161B1, “Lipids and lipid nanoparticle formulations” (LONGUIDE BIOPHARMA CORPORATION, priority 2024, dated 2025).

Tested on: mice
Experiment: In vivo delivery of FLuc-mRNA lipid nanoparticles in mice, in vivo imaging (IVIS)
Conditions: for IVIS / % of organ targeting: Fluc-mRNA LNP, formulation, molar ratio and N/P as in the table
In short: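 Mice (n=3) received about 75 μL FLuc-mRNA LNP per mouse intramuscularly (rectus femoris), intravenously (tail vein), intraperitoneally or subcutaneously (back). After injection, D-luciferin (200 μL, 15 mg/mL) was given i.p. 10-15 min before IVIS imaging.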

CCCCCCCCCCOC(=O)CCCNC(=O)C(O)CN(CCN(C)CCN(CC(O)C(=O)NCCCC(=O)OCCCCCCCCCC)CC(O)C(=O)NCCCC(=O)OCCCCCCCCCC)CC(O)C(=O)NCCCC(=O)OCCCCCCCCCC (stereo not drawn) [Compound L0386]
IVIS (route IM, organ not given): 1.91E+05
IVIS (route IV, organ: body): 6.49E+07
% of organ targeting (route IV, organ: liver): 1.32%
IVIS (route IV, organ: liver): 2.54E+06
% of organ targeting (route IV, organ: lung): 96.51%
IVIS (route IV, organ: lung): 1.86E+08
% of organ targeting (route IV, organ: spleen): 2.17%
IVIS (route IV, organ: spleen): 4.18E+06
organ targeting specificity (spleen or lung), in words (Table 3, Fluc-mRNA, various formulations): more selective towards the lung

CCCCCCCCCCOC(=O)CCCNC(=O)C(O)CN(CCCN(CC(O)C(=O)NCCCC(=O)OCCCCCCCCCC)CC(O)C(=O)NCCCC(=O)OCCCCCCCCCC)CCCN(CC(O)C(=O)NCCCC(=O)OCCCCCCCCCC)CC(O)C(=O)NCCCC(=O)OCCCCCCCCCC (stereo not drawn) [Compound L0387]
IVIS (route IM, organ not given): 1.15E+05
IVIS (route IV, organ not given): 5.23E+05

CCCCCCCCCCCCNC(=O)C(CN(CCCN(C)CCCN(CC(OC(C)=O)C(=O)NCCCCCCCCCCCC)CC(OC(C)=O)C(=O)NCCCCCCCCCCCC)CC(OC(C)=O)C(=O)NCCCCCCCCCCCC)OC(C)=O (stereo not drawn) [Compound L0388]
IVIS (route IM, organ not given): 1.49E+07
IVIS (route IV, organ: body): 1.49E+08
% of organ targeting (route IV, organ: liver): 22.33%
IVIS (route IV, organ: liver): 2.37E+07
% of organ targeting (route IV, organ: lung): 1.64%
IVIS (route IV, organ: lung): 1.74E+06
% of organ targeting (route IV, organ: spleen): 76.03%
IVIS (route IV, organ: spleen): 8.08E+07

CCCCCCCCCCCCNC(=O)C(CN(CCCN(C)CCCN(CC(OC(=O)CCCCC)C(=O)NCCCCCCCCCCCC)CC(OC(=O)CCCCC)C(=O)NCCCCCCCCCCCC)CC(OC(=O)CCCCC)C(=O)NCCCCCCCCCCCC)OC(=O)CCCCC (stereo not drawn) [Compound L0389]
IVIS (route IM, organ not given): 1.99E+04
IVIS (route IV, organ not given): 2.50E+05
